The test system of data set [1] is stress-induced gastric ulcer. Kind of data set: Protective effect on gastric ulcer induced by restraint plus water-immersion stress in rats. To be noted: for Ulcer index / inhibition in vivo at 10 mg/kg: 10 mg/kg p.o.; for Ulcer index: mean ± S.E.; for inhibition in vivo at 10 mg/kg: Rattus norvegicus, po. Type of data set: in vivo, rat (male Sprague-Dawley). On the procedure: 1.1. Protective Effect of Gastric Ulcer Induced by Restraint Plus Water-immersion Stress in Rats
Male Sprague-Dawley rats weighing 250-300 g were used in groups of 5-35. The animals were given the compounds by the oral route after fasting overnight. Immediately, under light ether anesthesia they were placed in a restraint box and immersed in water at 23° C. for 6 or 7 hours. Then the animals were sacrificed, and their stomachs were isolated, inflated with 8 ml of 1% formalin for 10 minutes, opened along the greater curvature, and examined for the presence of gastric erosions. The longest axis of each erosion induced on the glandular section of the stomach was measured, and the sum of the lengths was defined as an ulcer index.

Data set [2] can be described thus: in vivo. The note with it: mouse, mice. An excerpt: The intravenous or intraperitoneal LD50 values of the compounds of this invention and the reference compound (propentofylline) for mice are shown in Table 4.
The test system of data set [3] is ethanol-induced gastric ulcer. Put plainly: Protective effect on ethanol-induced gastric ulcer in rats. Format: in vivo, rat (male Sprague-Dawley). The note with it: 10 mg/kg p.o.; for Ulcer index: mean ± S.E.; for inhibition in vivo at 10 mg/kg: Rattus norvegicus, po, 1 h. The protocol: 1.2. Protective Effect on Ethanol-induced Gastric Ulcer in Rats
Male Sprague-Dawley rats weighing 300-400 g were used in groups of 4-36. After fasting overnight, the animals were given orally the compounds. Thirty minutes later they received absolute ethanol (1 ml/body) orally and were sacrificed after 60 minutes. The stomach was removed and examined for erosions. The ulcer index was obtained in the same way as under 1.1.

Data set [4] is described as follows: in vivo. To be noted: mouse, mice, oral, read-out: oral LC50.
Another data set relates to peptic ulcer. To be noted: Ter. Arkh. 57, 52-55, 1985; JP Laid-Open 225317/88; cited from earlier work.
[5] abbreviates: control distilled water (26.0 ± 2.2 mm).
The mark [6] stands for this setting: iv, i.v., read-out: LD50 (intravenous).
The mark [7] stands for this setting: control distilled water (93.1 ± 8.9 mm).
Where [8] appears, read: control 10% EtOH (32.9 ± 3.3 mm).
[9] abbreviates: control 10% EtOH (78.9 ± 8.5 mm).
[10] abbreviates: ip, i.p., read-out: LD50 (intraperitoneal).

Like-named read-outs stand apart in the source and are kept apart here.

`C=CCn1cnc2c1c(=O)n(CCCCC(C)(C)O)c(=O)n2C` [Compound 20, 7-Allyl-1-(5-hydroxy-5-methylhexyl)-3-methylxanthine]: the Ulcer index in data set [1] (setting [5]) came out at 10.6 ± 3.0 mm. In addition, in data set [1] (vs. control distilled water), the inhibition in vivo at 10 mg/kg was found to be 59.2%. For the same compound, in the data set “in vivo [2]” (setting [6]), the LD50 was more than 100 mg/kg.

On to `CCn1c(=O)n(CCCCC(C)(C)O)c(=O)c2c1ncn2C` [Compound 2], for which the Ulcer index was determined as 6.5 ± 1.6 mm in data set [1] (setting [5]) and 23.5 ± 7.0 mm in data set [3] (setting [7]). Further, the inhibition in vivo at 10 mg/kg came to 75% in data set [1] (vs. control distilled water) and 74.8% in data set [3] (vs. control distilled water). Moreover, the “times more effective than propentofylline in improving stress-induced gastric ulcers” value in data set [1] (stress-induced gastric ulcers) is on record as 2.5 times. Also, the LD50 in “in vivo [2]” (setting [6]) was more than 200 mg/kg.

For the compound `CCCn1cnc2c1c(=O)n(CCCCCC(C)(C)O)c(=O)n2CC` [Compound 14, 3-Ethyl-1-(6-hydroxy-6-methylheptyl)-7-propylxanthine], the Ulcer index in data set [1] (setting [8]) was 4.8 ± 1.7 mm; in data set [3] (setting [9]) it was 3.7 ± 1.1 mm. In addition, the inhibition in vivo at 10 mg/kg in data set [1] (vs. control 10% EtOH) stood at 85.4%; in data set [3] (listed under control 10% EtOH), 95.3%. Further, the LD50 in the data set “in vivo [2]” (setting [6]) was more than 200 mg/kg.

For the compound `CCn1cnc2c1c(=O)n(CCCCC(C)(C)O)c(=O)n2CC` [Compound 16, 3,7-Diethyl-1-(5-hydroxy-5-methylhexyl)-xanthine], the Ulcer index in data set [1] (setting [5]) came to 6.8 ± 1.6 mm; in data set [3] (setting [7]), 17.0 ± 7.1 mm. The inhibition in vivo at 10 mg/kg stood at 73.8% in data set [1] (vs. control distilled water) and 81.7% in data set [3] (vs. control distilled water). Further, the LD50 in “in vivo [2]” (setting [6]) is more than 200 mg/kg.

Consider `CCOCCn1c(=O)c2c(ncn2CCCCC(C)(C)O)n(C)c1=O` [Compound 10], for which, in data set [1] (setting [5]), the Ulcer index is on record as 17.8 ± 3.3 mm. For the same compound, in data set [1] (vs. control distilled water), the inhibition in vivo at 10 mg/kg turned out to be 31.5%. The LD50 in “in vivo [2]” (setting [6]) is more than 200 mg/kg.

Consider `CCCn1c(=O)c2c(ncn2CCCCC(C)(C)O)n(C)c1=O` [Compound 8], for which the Ulcer index in data set [1] (setting [5]) came out at 12.1 ± 2.9 mm. Moreover, in data set [1] (vs. control distilled water), the inhibition in vivo at 10 mg/kg came out at 53.5%. The LD50 in “in vivo [2]” (setting [6]) was 100 to 200 mg/kg.

As for `Cn1cnc2c1c(=O)n(CCCCC(C)(C)O)c(=O)n2C` [Compound 7], the Ulcer index in data set [1] (setting [5]) worked out at 15.8 ± 4.4 mm. Besides, in data set [1] (vs. control distilled water), the inhibition in vivo at 10 mg/kg came to 39.2%. In the data set “in vivo [2]” (setting [6]), the LD50 was more than 200 mg/kg.

As to `CCn1c(=O)n(CCCCCC(C)(C)O)c(=O)c2c1ncn2C(C)C` [Compound 15, 3-Ethyl-1-(6-hydroxy-6-methylheptyl)-7-isopropylxanthine], the Ulcer index in data set [1] (setting [8]) is 6.6 ± 1.6 mm; in data set [3] (setting [9]), 4.2 ± 2.2 mm. The inhibition in vivo at 10 mg/kg was 79.9% in data set [1] (vs. control 10% EtOH) and 94.7% in data set [3] (listed under control 10% EtOH). Also, the LD50 in “in vivo [2]” (setting [10]) is more than 600 mg/kg.

For the compound `Cn1c(=O)n(CCCCC(C)(C)O)c(=O)c2[nH]cnc21` [Compound 5], the Ulcer index in data set [1] (setting [5]) is given as 7.5 ± 2.0 mm. Moreover, the inhibition in vivo at 10 mg/kg in data set [1] (vs. control distilled water) worked out at 71.2%. Further, the LD50 in “in vivo [2]” (setting [6]) was more than 200 mg/kg; in “in vivo [4]”, more than 2500 mg/kg.

As to `CCCCn1cnc2c1c(=O)n(CCCCC(C)(C)O)c(=O)n2CC` [Compound 17, 7-Butyl-3-ethyl-1-(5-hydroxy-5-methylhexyl)-xanthine], the Ulcer index amounted to 12.5 ± 3.3 mm in data set [1] (setting [8]) and 13.0 ± 8.3 mm in data set [3] (setting [9]). The results for the inhibition in vivo at 10 mg/kg in data set [1] (vs. control 10% EtOH) and in data set [3] (listed under control 10% EtOH) were 62% and 83.5%, respectively. Also, the LD50 in “in vivo [2]” (setting [10]) was more than 600 mg/kg.

As to `CCn1c(=O)n(CCCCCC(C)(C)O)c(=O)c2c1ncn2C` [Compound 4], the Ulcer index is 10.6 ± 1.8 mm in data set [1] (setting [5]) and 21.2 ± 8.4 mm in data set [3] (setting [7]). In addition, the inhibition in vivo at 10 mg/kg in data set [1] (vs. control distilled water) amounted to 59.2%; in data set [3] (vs. control distilled water) it was 77.2%. Moreover, the LD50 in the data set “in vivo [2]” (setting [6]) lay within 100 to 200 mg/kg.

Regarding `CCCn1cnc2c1c(=O)n(CCCCC(C)=O)c(=O)n2C` [Compound 22, 1-(5'-oxohexyl)-3-methyl-7-propyl xanthine, reference compound], the Ulcer index is recorded as 18.4 ± 3.0 mm in data set [1] (setting [5]) and 34.7 ± 8.4 mm in data set [3] (setting [9]). In addition, the values for the inhibition in vivo at 10 mg/kg in data set [1] (vs. control distilled water) and in data set [3] (listed under control 10% EtOH) were 29.2% and 62.7%, respectively. The “antiulcer activity (in words, from literature)” value in the data set with peptic ulcer is “superior to that of pentoxifylline”.

`C=CCn1cnc2c1c(=O)n(CCCCC(C)(C)O)c(=O)n2CC` [Compound 19, 7-Allyl-3-ethyl-1-(5-hydroxy-5-methylhexyl)-xanthine]: the Ulcer index worked out at 10.2 ± 2.4 mm in data set [1] (setting [5]) and 5.2 ± 2.0 mm in data set [3] (setting [7]). Also, the inhibition in vivo at 10 mg/kg in data set [1] (vs. control distilled water) was found to be 60.8%; in data set [3] (vs. control distilled water), 94.4%. In the data set “in vivo [2]” (setting [6]), the LD50 is more than 100 mg/kg.

On to `C=CCCn1cnc2c1c(=O)n(CCCCC(C)(C)O)c(=O)n2C` [Compound 6], for which, in data set [1] (setting [8]), the Ulcer index came to 17.4 ± 4.5 mm. In addition, the inhibition in vivo at 10 mg/kg in data set [1] (vs. control 10% EtOH) came out at 47.1%. For the same compound, the LD50 in “in vivo [2]” (setting [10]) was 150 to 300 mg/kg.

With `CC(=O)CCCCn1c(=O)c2c(ncn2C)n(C)c1=O` [pentoxifylline], the “antiulcer activity (in words, from literature)” value with peptic ulcer is recorded as “antiulcer effects”.

Consider `C=CCCn1c(=O)c2c(ncn2CCCCC(C)(C)O)n(CC)c1=O` [Compound 21, 1-(3-Butenyl)-3-ethyl-7-(5-hydroxy-5-methylhexyl)-3-xanthine], for which the Ulcer index in data set [3] (setting [7]) was found to be 19.2 ± 9.2 mm. The compound also gave an inhibition in vivo at 10 mg/kg in data set [3] (vs. control distilled water) of 79.4%.

As to `CCCn1cnc2c1c(=O)n(CCCC(C)(O)CC)c(=O)n2C` (stereo not drawn) [Compound 12], the Ulcer index in data set [3] (setting [7]) was 26.1 ± 10.8 mm. Moreover, in data set [3] (vs. control distilled water), testing at 10 mg/kg gave an inhibition in vivo of 72%. In the data set “in vivo [2]” (setting [10]), the LD50 lay within 300 to 600 mg/kg.

Consider `CCCn1cnc2c1c(=O)n(CCCC(C)(C)O)c(=O)n2CC` [Compound 3], for which, in data set [1] (setting [5]), the Ulcer index worked out at 12.8 ± 2.5 mm. In data set [1] (vs. control distilled water), the inhibition in vivo at 10 mg/kg came out at 50.8%. Besides, the LD50 in “in vivo [2]” (setting [6]) was more than 200 mg/kg.

For `Cn1c(=O)n(CCCCC(C)(C)O)c(=O)c2c1ncn2CCC(O)CO` (stereo not drawn) [Compound 9], in data set [1] (setting [5]), the Ulcer index was determined as 17.8 ± 3.3 mm. The inhibition in vivo at 10 mg/kg in data set [1] (vs. control distilled water) turned out to be 31.5%. The LD50 in the data set “in vivo [2]” (setting [6]) was more than 100 mg/kg.

On to `CCCn1cnc2c1c(=O)n(CCCCCC(C)(C)O)c(=O)n2C` [Compound 11], for which, in data set [1] (setting [5]), the Ulcer index is given as 16.0 ± 3.8 mm. Besides, in data set [1] (vs. control distilled water), the inhibition in vivo at 10 mg/kg came out at 38.5%. Besides, the LD50 in the data set “in vivo [2]” (setting [10]) was in the range of 150 to 300 mg/kg.

As to `CCCn1cnc2c1c(=O)n(CCCCC(C)(C)O)c(=O)n2CC` [Compound 1], the Ulcer index worked out at 8.7 ± 1.6 mm in data set [1] (setting [5]) and 12.0 ± 6.9 mm in data set [3] (setting [7]). For the same compound, the inhibition in vivo at 10 mg/kg in data set [1] (vs. control distilled water) came out at 66.5%; in data set [3] (vs. control distilled water) it was 87.1%. Also, the LD50 in “in vivo [2]” (setting [6]) lay in the range of 100 to 200 mg/kg.

In the case of `CCOCn1cnc2c1c(=O)n(CCCCC(C)(C)O)c(=O)n2CC` [Compound 18], the Ulcer index in data set [1] (setting [5]) is on record as 6.9 ± 2.1 mm; in data set [3] (setting [7]), 16.8 ± 7.1 mm. The inhibition in vivo at 10 mg/kg was 73.5% in data set [1] (vs. control distilled water) and 82% in data set [3] (vs. control distilled water). Further, the LD50 in the data set “in vivo [2]” (setting [6]) is more than 200 mg/kg.

With `CCn1cnc2c1c(=O)n(CCCCCC(C)(C)O)c(=O)n2CC` [Compound 13, 3,7-diethyl-1-(6-hydroxy-6-methylheptyl)-xanthine], the Ulcer index in data set [1] (setting [5]) worked out at 5.0 ± 1.0 mm; in data set [3] (setting [7]) it was 15.7 ± 9.4 mm. Also, the inhibition in vivo at 10 mg/kg in data set [1] (vs. control distilled water) turned out to be 80.8%; in data set [3] (vs. control distilled water), 83.1%. Further, in “in vivo [2]” (setting [6]), the LD50 is more than 200 mg/kg.

The term inhibition in vivo denotes how much of the control response was suppressed.

The values are drawn from patent publication US5109003A, “Method for the treatment of peptic ulcer disease” (Hoechst Japan Limited, priority 1989, dated 1992).
